One data set is described as follows: in vitro. To be noted: human, PBMC.
A short description of another data set: physchem. The following applies: octanol/water.
For data set [1], the system named is Human immunodeficiency virus 1. The data set can be described thus: microbe, parasite or virus in culture. To be noted: Human immunodeficiency virus 1, 168 h.
Description: Antiviral activity against HIV1 infected in human PBMC assessed as inhibition of viral p24 antigen production after 7 days by ELISA

Description for in vitro: Cytotoxicity against human PBMC after 7 days by sulforhodamine B assay
Description for physchem: Lipophilicity, log P of the compound

For `CCCCCCCCOC(=O)OC[C@H]1O[C@@H](n2ccc(N)nc2=O)CS1`, in “in vitro”, the CC50 at 168 h worked out at 450 µM. The same compound displayed a logP in the data set “physchem” of 1.72. It took 0.2 µM to reach half-maximal inhibition in data set [1] (IC50).
For `CCCCOC(=O)OC[C@H]1O[C@@H](n2ccc(N)nc2=O)CS1`, in that order: 4500 µM, 0.86 and 0.2 µM.
For `CCCCCCOC(=O)OC[C@H]1O[C@@H](n2ccc(N)nc2=O)CS1`, in that order: 857 µM, 1.57 and 0.25 µM.
For `CCCOC(=O)OC[C@H]1O[C@@H](n2ccc(N)nc2=O)CS1`, in that order: 3330 µM, 0.2 and 0.3 µM.
In the data set “in vitro”, `CCCCCOC(=O)OC[C@H]1O[C@@H](n2ccc(N)nc2=O)CS1` showed a CC50 at 168 h of 1290 µM. Moreover, the logP in “physchem” stood at 1.23. The compound also had an IC50 in data set [1] of 0.065 µM.
For `CC(C)CCOC(=O)OC[C@H]1O[C@@H](n2ccc(N)nc2=O)CS1`, in that order: 3330 µM, -0.15 and 1.27 µM.
On the same counts, the results for `CCOC(=O)OC[C@H]1O[C@@H](n2ccc(N)nc2=O)CS1` are 3000 µM, -0.31 and 0.2 µM.
